{
  "source": "patent US20050004136A1",
  "about": "“Novel amidoalkyl-piperidine and amidoalkyl-piperazine derivatives useful as neurokinin receptor modulators” (priority 2000, published 2005)",
  "key": {"[1]": {"tested_on": "serotonin neural pathways", "assay": "DOI Headshake Model", "assay_type": "in vivo", "design": "key: Active: A statistically significant decrease in the number of headshakes induced by the administration of DOI in the mice given the test compound relative to the mice given the control was an indication of modulation of the serotonin neural pathways and thus an indication of an active compound", "details": "DOI-induced headshakes, mice (NIH Swiss; starred compounds also CD-1); for Number of Headshakes, IP Admin: i.p., doses up to 100 mg/kg; for Number of Headshakes, Oral Admin.: doses up to 40 mg/kg", "experimental": "Male CD-1 or NIH-Swiss mice were fasted overnight. The mice were given control vehicle or test compound by the oral or intraperitoneal (i.p.) routes of administration at doses up to 40 mg/kg orally and up to 100 mg/kg i.p. Administration time was denoted as t0. At each of several selected intervals after t0 (at about 45 min, 1 h, 2 h, 4 h, 6 h, 8 h, 24 h after administration), separate groups of mice were given 1-{2,5-dimethoxy-4-iodophenyl]-2-aminopropane (DOI), a known serotonin receptor type-2A agonist, by the intraperitoneal route of administration route. […] (Separate groups of mice were tested at each time interval.) Peak activity time, denoted as tp, was determined as the time of the greatest reduction in the number of DOI-induced headshakes for mice given the test compound compared to the number of headshakes for the mice given the control, measured at the same time interval.\nA statistically significant decrease in the number of headshakes induced by the administration of DOI in the mice given the test compound relative to the mice given the control was an indication of modulation of the serotonin neural pathways and thus an indication of an active compound.\nIn vivo biological activity was measured for select compounds of the present invention as listed in Table 11, using the procedures outlined above. Starred (*) compounds were tested on both male CD-1 mice and NIH Swiss mice, all other compounds were tested using Swiss NIH mice."}, "rats [2]": {"tested_on": "rats", "assay": "Elevated Plus Maze (EPM) Test", "assay_type": "in vivo", "design": "key: Active = statistically significant (Mann Whitney U test p < 0.05) increase in open arm time or open arm entries at 10 mg/kg po", "details": "Long-Evans Hooded rats, 10 mg/kg po, one hour after dosing", "experimental": "(§1) Male Long-Evans Hooded rats weighing 180 to 200 grams were purchased from Charles River Inc (Portage MI). The rats were housed in groups of four at an ambient temperature of 21 to 23° C. in a room with an automated 12/12 hour light/dark cycle. The rats had access to water and a commercial rodent food ad libitum. At the time of the experiment the rats weighed 220 to 350 grams.\n(§2) The assay was run with test compound or vehicle administered to the animals at time zero. Fifty minutes after administration, the animals were tested in the SMA (Spontaneous Locomotor Activity), which was completed in 10 minutes. Immediately following SMA testing, the rats were moved and tested in the EPM (elevated Plus Maze), which was also completed in ten minutes. Test compounds were suspended in an aqueous vehicle (MC) comprised of 0.5% Methylcellulose and administered p.o.\nThe elevated plus maze (EPM) is the most widely used animal test of anxiety. The fully quantitative computerized EPM has validity as an anxiety model from the theoretical basis and pharmacological responses. The EPM also has high ecological validity since it studies the spontaneous behavioral patterns in response to interactions with the environment.\nThe procedure is based on the natural aversion of rodents to explore open and high places, as well as their innate tendency for thigmotaxis. When rats are placed on the elevated-plus maze, they have a normal tendency to remain in the enclosed arms of the maze and avoid venturing into the open arms. Animals treated with typical or atypical anxiolytics show an increase in the percentage of time spent (% Time) and/or the percentage of entries made (% Entries) into the open arms.\nThe test apparatus used consisted of a black plastic maze with two open arms and two arms with 40 cm high walls (enclosed arms) of equal length (50 cm) extending from the center at right angles, such that arms of similar type were opposite each other. Each plus-maze was elevated approximately 60 cm above the floor. Infrared photo-beams that crossed the entrance of each arm and the center of the maze detected the exploratory activity of an animal in the maze. […]\nAnxiolytic activity of a test compound was quantified using two parameters: a) the percent of total time spent by a rat in one of the two open arms of the apparatus (% open arm time) which was calculated as follows: [formula] • and b) the number of times a rat entered the open arms relative to the total entries into all arms and the center area (% open arm entries), calculated as follows: [formula]\nData were analyzed for statistical significance between drug and vehicle-treated groups via one tailed Mann-Whitney T-Test. […]"}, "rats [3]": {"tested_on": "rats", "assay": "Spontaneous Locomotor Activity (SMA) Test", "assay_type": "in vivo", "design": "key: Increase = statistically significant (Mann Whitney U test p < 0.05) increase in horizontal activity and vertical movements indicating lack of sedation or motor impairment at 10 mg/kg po", "details": "Long-Evans Hooded rats, 10 mg/kg po, 50 minutes after administration; decrease = sedation", "experimental": "as §1, §2\nThe test apparatus consisted of a plastic cubicle (40.6 cm, length; 40.6 cm, width; 30.5 cm, height) that was placed in the center of a main frame. Photocell sensors (8 beams from front to back and 8 beams from side to side) were built into the sides of the frame for monitoring horizontal movement. The photocells were located at right angles to each other, projecting horizontal infrared beams of light 5 cm apart and 2 cm above the floor to measure horizontal activity, and 5 cm apart and 14 cm above the floor to measure vertical activity. Rats were divided into groups (N=8 to 12). Test compound or vehicle was administered orally by gavage in a dose volume equivalent to 5 mL/kg. At 50 minutes after administration each rat was placed into a separate plastic cubicle and spontaneous exploratory activity was recorded for 10 minutes. Horizontal and vertical movements of the rats were recorded by counting the number of times the beams of light were interrupted (horizontal and vertical counts). Collection of the data and preliminary data analysis was automated. A drug-induced decrease in spontaneous horizontal or vertical motor activity was regarded as an indication of sedation.\nHA data were analyzed for statistical significance between drug and vehicle-treated groups that were administered either the vehicle or each dose of the test compound by a one-way analysis of variance. Then Dunnett's multiple comparison method was used to test for a reduction (p<0.05, 1-tailed) in the average number of HA counts or VM counts in drug-treated groups, compared to a concurrently run vehicle-treated group. If the probability was less than 5% (p<0.05) that a decrease in HA and/or VM in the drug-treated group compared to a concurrently run vehicle-treated group was due to chance, then the dose of the test compound was considered to have sedative activity. Mann-Whitney T-Test is used in cases where the distribution of the data is non-gaussian."}, "[4]": {"tested_on": "Senktide-induced headshake", "assay": "Reversal of Senktide-induced head shake in mice", "assay_type": "in vivo", "design": "key: Active = a statistically significant (Mann-Whitney t-test (one-tailed)) reduction in the headshakes produced by senktide (5 mg/kg), in animals dosed with test compound 10 mg/kg po", "details": "NIH-Swiss mice, test compound 10 mg/kg po, senktide 5 mg/kg sc 45 min later, 10 min count", "experimental": "The in vivo assay measuring the reversal of Senktide-induced headshake in mice has been previously described in the literature by Sarau, H. M., et al in J. Pharmacol. Exp. Therapeutics (2000), 295 pp 373-381.\nBriefly, overnight fasted NIH-Swiss mice weighing 18-21 gms were treated with test compound or vehicle by the oral (gavage) route, at various concentrations. Forty five (45) minutes after administration, the animals are injected subcutaneously (sc) with Senktide at a concentration of 5 mg/kg. Immediately after administration of the Senktide, the animals are randomized and laced into isolated observation chambers and the number of headshakes per recorded over a ten (10) minute period. A decrease in the number of Senktide induced headshakes for test compound treated animals as compared with vehicle treated animals (analysis completed using Mann-Whitney t-test (one tailed)) was taken as an indication of anxiolytic activity for the compound.\nRepresentative compounds of the instant invention were tested for reversal of Senktide-induced headshakes in mice, with results as listed in Table 12."}, "cisplatin induced emesis": {"tested_on": "cisplatin induced emesis", "assay": "Anti-emetic test, cisplatin induced emesis", "assay_type": "in vivo, shrew", "details": "shrews, 20 mg/kg, administered subcutaneously; statistically significant reduction", "experimental": "The effectiveness of a test compound to inhibit emesis in the shrew were determined according to the procedure described in Darmani, N. A. Serotonin 5-HT3 receptor antagonists prevent cisplatin-induced emesis in Cryptosis parva: a new experimental model of emesis. J Neural. Transm. 1998, 105, 1143-1154."}},
  "data": [
    {"smiles": "O=C(CC1CCN(C(=O)c2cccc(C#Cc3ccccn3)c2)CC1)Nc1ccc(O)cc1", "note": "[Compound 75, N-(4-hydroxyphenyl)-1-[3-(2-pyridinylethynyl)benzoyl]-4-piperidineacetamide]", "values": [
      {"measurement": "Number of Headshakes, IP Admin", "setting": "[1]", "value": "Active"},
      {"measurement": "Number of Headshakes, Oral Admin.", "setting": "[1]", "value": "Active"},
      {"measurement": "Increase % Open Arm Entries", "setting": "rats [2]", "value": "Active"},
      {"measurement": "Increase % Open Arm Time", "setting": "rats [2]", "value": "Active"},
      {"measurement": "SMA Horizontal Activity", "setting": "rats [3]", "value": "Increase"},
      {"measurement": "SMA Vertical Movement", "setting": "rats [3]", "value": "Increase"}
    ]},
    {"smiles": "O=C(CN1CCN(C(=O)c2cccc(C#Cc3ccccn3)c2)CC1)Nc1ccccc1", "note": "[Compound 106, N-phenyl-4-[3-(2-pyridinylethynyl)benzoyl]-1-piperazineacetamide]", "values": [
      {"measurement": "Number of Headshakes, IP Admin", "setting": "[1]", "value": "Active"},
      {"measurement": "Number of Headshakes, Oral Admin.", "setting": "[1]", "value": "Active"}
    ]},
    {"smiles": "O=C(CN1CCN(C(=O)c2cccc(NCc3cc(C(F)(F)F)cc(C(F)(F)F)c3)c2)CC1)Nc1ccccc1", "note": "[Compound 501, 4-[3-[[[3,5-bis(trifluoromethyl)phenyl]methyl]amino]benzoyl]-N-phenyl-1-piperazineacetamide]", "values": [
      {"measurement": "Number of Headshakes, Oral Admin.", "setting": "[1]", "value": "Inactive"}
    ]},
    {"smiles": "O=C(CC1CCN(C(=O)c2ccc(/C=C\\c3ccncc3)cc2)CC1)Nc1ccccc1", "note": "[Compound 73, N-phenyl-1-[4-[(Z)-2-(4-pyridinyl)ethenyl]benzoyl]-4-piperidineacetamide]", "values": [
      {"measurement": "Number of Headshakes, IP Admin", "setting": "[1]", "value": "Active"},
      {"measurement": "Number of Headshakes, Oral Admin.", "setting": "[1]", "value": "Active"}
    ]},
    {"smiles": "O=C(CC1CCN(C(=O)c2cccc(C#Cc3ccccn3)c2)CC1)Nc1ccccc1", "note": "[Compound 10, N-phenyl-1-[3-(2-pyridinylethynyl)benzoyl]4-piperdineacetamide]", "values": [
      {"measurement": "Number of Headshakes, IP Admin", "setting": "[1]", "value": "Active"},
      {"measurement": "Number of Headshakes, Oral Admin.", "setting": "[1]", "value": "Active"},
      {"measurement": "Senktide Headshake Assay", "setting": "[4]", "value": "Active"},
      {"measurement": "Increase % Open Arm Entries", "setting": "rats [2]", "value": "Active"},
      {"measurement": "Increase % Open Arm Time", "setting": "rats [2]", "value": "Active"},
      {"measurement": "SMA Horizontal Activity", "setting": "rats [3]", "value": "Increase"},
      {"measurement": "SMA Vertical Movement", "setting": "rats [3]", "value": "Increase"},
      {"measurement": "cisplatin induced emesis in vivo test (reduction in cisplatin induced retching behavior)", "setting": "cisplatin induced emesis", "value": "active"}
    ]}
  ]
}
